Calls of active or inactive are those of the source. No cut-off for these calls is given here.
Columns and labels:
Assay type in all cases: functional, organism-based
[1] = test system: Candida albicans; assay: Antifungal activity against Candida albicans ATCC 10231 at 2 ug after 24 hrs by disk-diffusion assay
[2] = test system: Saccharomyces cerevisiae; assay: Antifungal activity against Saccharomyces cerevisiae YCG 117 after 18 hrs; settings: YCG 117, 18 h
[3] = test system: Enterococcus faecalis; assay: Antimicrobial activity against Enterococcus faecalis ATCC 19433 at 20 ug after 24 hrs by disk-diffusion assay
[4] = test system: Candida albicans; assay: Antifungal activity against Candida albicans ATCC 10231 at 20 ug after 24 hrs by disk-diffusion assay
[5] = test system: Candida albicans; assay: Antifungal activity against Candida albicans ATCC 10231 at 8 ug after 24 hrs by disk-diffusion assay
[6] = test system: Enterococcus faecalis; assay: Antimicrobial activity against Enterococcus faecalis ATCC 19433 at 8 ug after 24 hrs by disk-diffusion assay
[7] = test system: Enterococcus faecalis; assay: Antimicrobial activity against Enterococcus faecalis ATCC 19433 at 2 ug after 24 hrs by disk-diffusion assay

| SMILES | Activity [1] | IC50 [2] | Activity [3] | Activity [4] | Activity [5] | Activity [6] | Activity [7] |
| --- | --- | --- | --- | --- | --- | --- | --- |
| C1=C\CCCCC[n+]2cccc(c2)CCCCCC/1 | inactive | 1.5 µg/mL | inactive | inactive | inactive | inactive | inactive |
| C1=C\CCCCCC[n+]2cccc(c2)CCCCCC/1 | inactive | 1.5 µg/mL | inactive | inactive | inactive | inactive | inactive |
| c1cc2c[n+](c1)CCCCCCCCCCCCC2 | inactive | 1.5 µg/mL | inactive | inactive | inactive | inactive | inactive |

From ChEMBL document CHEMBL2429776, “Cyclic 3-alkyl pyridinium alkaloid monomers from a New Zealand Haliclona sp. marine sponge” (J Nat Prod, 2013)
